According to ChEMBL document CHEMBL1143504, “Structure-based design of derivatives of tyropeptin A as the potent and selective inhibitors of mammalian 20S proteasome” (Bioorg Med Chem Lett, 2005):
pIC50: −log10 of the molar value. Where a SMILES comes first, the peptide text is derived from it. [ ]: non-standard residue; d: D form. The star is where a group is joined. ξ: configuration not given here. ξY = NC(Cc1ccc(O)cc1)C(=O)O; Isovaleryl = CC(C)CC(=O)*; Hexanoyl = CCCCCC(=O)*; PhAc = O=C(Cc1ccccc1)*

Columns and labels:
Assay type in all cases: functional, subcellular
[1] = molecular target: 20S proteasome; assay: Inhibitory concentration to inhibit trypsin-like activity of 20S proteasome from human leukemia HL-60 cells was determined
[2] = molecular target: 20S proteasome; assay: Inhibitory concentration to inhibit the PGPH activity of 20S proteasome prepared from human leukemia HL-60 cells was determined
[3] = molecular target: 20S proteasome; assay: Inhibitory concentration to inhibit chymotrypsin-like activity of 20S proteasome prepared from human leukemia HL-60 cells was determined

Compound | pIC50 [1] | pIC50 [2] | pIC50 [3]
COc1ccc(CC(C=O)NC(=O)[C@@H](NC(=O)[C@H](Cc2ccc(OC)cc2)NC(=O)Cc2cccc3ccccc23)C(C)C)cc1 (stereo partly specified) | < 4.00 | < 4.00 | 7.57
COc1ccc(CC(C=O)NC(=O)[C@@H](NC(=O)[C@H](Cc2ccc(O)cc2)NC(=O)Cc2cccc3ccccc23)C(C)C)cc1 (stereo partly specified) | 5.22 | 4.42 | 7.74
COc1ccc(C[C@H](NC(=O)Cc2cccc3ccccc23)C(=O)N[C@H](C(=O)NC(C=O)Cc2ccc(O)cc2)C(C)C)cc1 (stereo partly specified) | 5.22 | 4.51 | 7.70
COc1ccc(CC(C=O)NC(=O)[C@@H](NC(=O)[C@H](Cc2ccc(OC)cc2)NC(=O)CC(C)C)C(C)C)cc1 (stereo partly specified) (Isovaleryl-Tyr(Me)-Val-[ξY](Me)-aldehyde) | 4.43 | 4.25 | 6.92
CC(C)CC(=O)N[C@@H](Cc1ccc(O)cc1)C(=O)N[C@H](C(=O)NC(C=O)Cc1ccc(O)cc1)C(C)C (stereo partly drawn) [TYROPEPTIN A] (Isovaleryl-Tyr-Val-[ξY]-aldehyde) | 5.30 | 4.17 | 6.85
COc1ccc(C[C@@H](C=O)NC(=O)[C@@H](NC(=O)[C@H](Cc2ccc(OC)cc2)NC(=O)CN(C)C)C(C)C)cc1 | 5.11 | < 4.00 | 5.92
COc1ccc(CC(C=O)NC(=O)[C@@H](NC(=O)[C@H](Cc2ccc(O)cc2)NC(=O)CC(C)C)C(C)C)cc1 (stereo partly drawn) (Isovaleryl-Tyr-Val-[ξY](Me)-aldehyde) | 4.68 | 4.68 | 6.72

Stronger by pIC50 [1], values ahead:

pIC50 [1] | pIC50 [2] | pIC50 [3] | Compound
5.92 | 5.31 | 8.15 | CC(C)[C@H](NC(=O)[C@H](Cc1ccc(O)cc1)NC(=O)Cc1cccc2ccccc12)C(=O)NC(C=O)Cc1ccc(O)cc1 (stereo partly specified)
5.70 | 4.80 | 7.57 | CC(C)[C@H](NC(=O)[C@H](Cc1ccc(O)cc1)NC(=O)Cc1ccccc1)C(=O)NC(C=O)Cc1ccc(O)cc1 (stereo partly drawn) (PhAc-Tyr-Val-[ξY]-aldehyde)
5.70 | 4.70 | 7.43 | CCCCCC(=O)N[C@@H](Cc1ccc(O)cc1)C(=O)N[C@H](C(=O)NC(C=O)Cc1ccc(O)cc1)C(C)C (stereo partly drawn) (Hexanoyl-Tyr-Val-[ξY]-aldehyde)
5.52 | 4.77 | 6.48 | CC(C)[C@H](NC(=O)[C@H](Cc1ccc(O)cc1)NC(=O)CC1CCCCC1)C(=O)NC(C=O)Cc1ccc(O)cc1 (stereo partly specified)
6.15 | 5.33 | 7.85 | CC(C)[C@H](NC(=O)[C@H](Cc1ccc(O)cc1)NC(=O)Cc1ccc2ccccc2c1)C(=O)NC(C=O)Cc1ccc(O)cc1 (stereo partly specified)
